# Assay results published in ChEMBL document CHEMBL1201862, “PubChem BioAssay data set” (2004).
# Activity calls are given as the source filed them. For most assays here, no stated cut-off is given here; in the data, actives have a measured EC50 and inactives only a lower limit.
# Key:
# [1] = target: T1, Heat shock factor protein 1 (Mus musculus, UniProt P38532); test: enhancement of HSF1-driven luciferase signal – cell-based, NIH3T3, luminescence, dose retest, confirmation (AID 435004); type: functional;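 further: stress induced by proteasome inhibitor MG132 added 30 min after compound; luciferase reporter driven by HSF1 response element in NIH3T3 cells; actives raise luminescence as potentiators of the MG132 stress response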
# T1 sequence (P38532 whole entry): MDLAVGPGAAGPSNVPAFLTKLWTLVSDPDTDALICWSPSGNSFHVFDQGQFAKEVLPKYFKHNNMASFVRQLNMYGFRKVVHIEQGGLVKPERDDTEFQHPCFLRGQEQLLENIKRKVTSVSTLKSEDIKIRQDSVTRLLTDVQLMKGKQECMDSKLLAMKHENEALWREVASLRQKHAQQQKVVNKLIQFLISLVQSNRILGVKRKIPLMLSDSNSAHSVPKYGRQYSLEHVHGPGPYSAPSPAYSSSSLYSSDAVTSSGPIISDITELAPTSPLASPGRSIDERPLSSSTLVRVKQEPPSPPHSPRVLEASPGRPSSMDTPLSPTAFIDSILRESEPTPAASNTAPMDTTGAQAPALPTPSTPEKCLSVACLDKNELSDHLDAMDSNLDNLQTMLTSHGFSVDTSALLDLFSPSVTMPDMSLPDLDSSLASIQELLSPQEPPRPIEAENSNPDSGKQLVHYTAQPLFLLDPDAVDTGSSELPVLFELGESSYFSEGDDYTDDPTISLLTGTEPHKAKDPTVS
# [2] = target: T2, Fatty acid synthase (Homo sapiens, UniProt P49327); test: inhibition of human FAS-TE enzyme activity – biochemical, kinetic fluorescence intensity, dose response (AID 624326); type: functional;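 further: rate of fluorescence rise from hydrolysis of a fluorogenic O-methyl fluorescein ester substrate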
# [3] = target: T2, Fatty acid synthase; test: inhibition of human FAS-TE enzyme activity – biochemical, endpoint fluorescence intensity, uHTS hits, dose response (AID 624327); type: functional;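 further: fluorescence from hydrolysis of an O-methyl fluorescein acyl ester substrate by the enzyme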
# [4] = viability of HCT116 lacking mutant beta-catenin – cell-based, human colon tumor, dose response (AID 1045); type: functional;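 further: HCT116 colon tumor cells with beta catenin knocked out; cells exposed to compound for 60 hours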
# [5] = viability of PTEN-deleted HCT116 cells – cell-based, HCT116 PTEN knockout, dose response (AID 1047); type: functional;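 further: HCT116 colon tumor cells with PTEN knocked out; cells exposed to compound for 60 hours before readout; potency for loss of cell viability measured by luminescence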
# [6] = test system: BJ; test: BJ-TERT fibroblast viability loss – cell-based, RAS-independent, luminescence, dose response (AID 1933); type: functional; settings: Homo sapiens
# [7] = DRD fibroblast viability loss – cell-based, non-viral oncogenic, luminescence, dose response (AID 1934); type: functional; settings: Homo sapiens
# [8] = Luminescence Cell-Based Dose Response HTS to Identify Inhibitors of 5'UTR Stem-Loop Driven Prion Protein mRNA Translation in H4 Neuroglioblastoma Cells. [Related pubchem assays: 1827 (Project Summary), 1813 (Primary HTS)]; type: functional
# [9] = alpha-synuclein stem-loop luciferase translation blockers – H4 neuroglioma cells, luminescence, confirmation (AID 1988); type: functional, cell-based
# [10] = test system: BJ; test: cells; type: functional, cell-based; settings: Homo sapiens
# [11] = test system: BJ; test: BJ-TERT-LT-ST fibroblast viability loss – cell-based, RAS-independent, luminescence, dose response (AID 1935); type: functional; settings: Homo sapiens;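 further: BJ fibroblasts immortalized with TERT plus LT and ST oncogenes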
# [12] = luciferase reporter signal suppression in cells – H4 neuroglioma cells, luminescence, dose response (AID 1990); type: functional, cell-based
# [13] = target: T3, Cytochrome P450 1A2 (Homo sapiens, UniProt P05177);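 further: PubChem cytochrome P450 panel assay, CYP1A2 panel member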
# T3 sequence (P05177 whole entry): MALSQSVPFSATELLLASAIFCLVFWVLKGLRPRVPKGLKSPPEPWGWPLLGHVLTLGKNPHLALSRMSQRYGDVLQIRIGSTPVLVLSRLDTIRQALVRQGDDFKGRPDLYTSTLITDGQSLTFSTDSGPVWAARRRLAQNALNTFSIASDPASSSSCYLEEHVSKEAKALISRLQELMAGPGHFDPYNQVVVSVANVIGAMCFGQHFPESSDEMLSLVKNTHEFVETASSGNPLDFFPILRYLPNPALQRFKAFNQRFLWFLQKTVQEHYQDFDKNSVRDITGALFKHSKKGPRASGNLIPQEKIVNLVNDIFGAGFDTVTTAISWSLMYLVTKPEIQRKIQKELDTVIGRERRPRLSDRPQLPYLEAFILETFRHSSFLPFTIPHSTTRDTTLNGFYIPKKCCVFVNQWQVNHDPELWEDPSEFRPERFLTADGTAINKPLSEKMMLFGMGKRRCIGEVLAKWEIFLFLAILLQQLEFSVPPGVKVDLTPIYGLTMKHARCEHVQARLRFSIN
# [14] = target: T4, Protein RecA (Mycobacterium tuberculosis, UniProt P9WHJ3); test: Fluorescence Cell-Free Homogeneous Dose Retest to Identify Inhibitors of RecA-Intein Splicing Activity. [Related pubchem assays (depositor defined):AID2097, AID2223, AID489010, AID492950]; type: functional
# T4 sequence (P9WHJ3 whole entry): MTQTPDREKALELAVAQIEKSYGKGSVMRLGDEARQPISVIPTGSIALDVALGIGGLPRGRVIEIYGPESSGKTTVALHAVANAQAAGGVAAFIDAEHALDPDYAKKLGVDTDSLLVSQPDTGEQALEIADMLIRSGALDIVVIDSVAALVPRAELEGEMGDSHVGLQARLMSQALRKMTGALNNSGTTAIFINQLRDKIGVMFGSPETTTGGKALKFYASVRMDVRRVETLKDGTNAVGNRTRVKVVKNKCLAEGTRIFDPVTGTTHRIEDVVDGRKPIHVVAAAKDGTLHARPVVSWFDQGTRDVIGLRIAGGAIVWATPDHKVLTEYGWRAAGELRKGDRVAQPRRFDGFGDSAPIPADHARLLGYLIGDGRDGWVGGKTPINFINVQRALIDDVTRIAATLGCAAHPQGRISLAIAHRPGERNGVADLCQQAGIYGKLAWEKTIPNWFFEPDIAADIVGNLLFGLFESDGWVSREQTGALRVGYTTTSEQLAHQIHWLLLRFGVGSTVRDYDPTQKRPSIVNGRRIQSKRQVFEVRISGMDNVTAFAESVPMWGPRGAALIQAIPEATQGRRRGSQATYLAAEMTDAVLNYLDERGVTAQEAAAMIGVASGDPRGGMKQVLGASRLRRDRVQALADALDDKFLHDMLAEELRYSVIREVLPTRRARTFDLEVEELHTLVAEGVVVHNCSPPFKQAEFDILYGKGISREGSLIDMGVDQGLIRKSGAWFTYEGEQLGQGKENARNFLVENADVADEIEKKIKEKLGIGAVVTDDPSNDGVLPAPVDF
# [15] = target: T5, Replicative DNA helicase DnaB (Mycobacterium tuberculosis, UniProt P9WMR3); test: DnaB intein splicing inhibitors, dose response, biochemical, cell-free fluorescence (AID 449749); type: functional
# T5 sequence (P9WMR3 whole entry): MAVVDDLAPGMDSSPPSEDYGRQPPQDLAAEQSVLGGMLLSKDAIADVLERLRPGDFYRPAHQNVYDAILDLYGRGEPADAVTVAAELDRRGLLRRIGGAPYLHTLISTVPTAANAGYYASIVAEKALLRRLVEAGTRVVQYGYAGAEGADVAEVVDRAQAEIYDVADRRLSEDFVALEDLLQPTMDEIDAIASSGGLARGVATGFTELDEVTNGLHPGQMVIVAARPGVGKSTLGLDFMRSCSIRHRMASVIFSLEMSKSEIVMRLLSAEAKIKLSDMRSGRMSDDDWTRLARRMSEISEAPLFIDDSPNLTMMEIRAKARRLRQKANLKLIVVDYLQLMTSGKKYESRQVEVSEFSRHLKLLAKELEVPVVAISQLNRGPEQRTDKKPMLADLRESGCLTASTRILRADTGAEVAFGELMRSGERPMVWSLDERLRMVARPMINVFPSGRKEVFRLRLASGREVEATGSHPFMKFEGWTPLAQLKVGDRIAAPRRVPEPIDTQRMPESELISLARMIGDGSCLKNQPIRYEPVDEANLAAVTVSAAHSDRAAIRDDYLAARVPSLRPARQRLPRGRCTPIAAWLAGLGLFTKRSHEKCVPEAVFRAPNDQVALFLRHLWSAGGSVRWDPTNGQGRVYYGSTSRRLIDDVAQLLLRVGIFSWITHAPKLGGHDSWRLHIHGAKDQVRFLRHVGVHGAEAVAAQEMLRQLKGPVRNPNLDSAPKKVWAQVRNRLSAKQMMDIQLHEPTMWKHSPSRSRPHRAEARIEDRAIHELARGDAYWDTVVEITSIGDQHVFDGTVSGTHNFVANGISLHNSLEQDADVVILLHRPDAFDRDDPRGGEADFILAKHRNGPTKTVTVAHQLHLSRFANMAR
# [16] = viability of uninfected HEp-2 cells – cell-based, HTS, cytotoxicity control for RSV inhibitor project, dose response (AID 2410); type: functional; settings: human respiratory syncytial virus
# [17] = Luminescence Cell-Based Dose Response HTS to Identify Activators of Luciferase Translation or Activity in H4 […] Cells. [Related pubchem assays: 1829 (Project Summary), 1814 (Primary HTS)]; type: functional
# [18] = test system: H4; test: Luminescence Cell-Based Dose Response HTS to Identify Activators of 5'UTR Stem-Loop Driven Prion Protein mRNA Translation in H4 Neuroglioblastoma Cells. [Related pubchem assays: 1829 (Project Summary), 1814 (Primary HTS)]; type: functional; settings: Homo sapiens
# T2 sequence (P49327 whole entry): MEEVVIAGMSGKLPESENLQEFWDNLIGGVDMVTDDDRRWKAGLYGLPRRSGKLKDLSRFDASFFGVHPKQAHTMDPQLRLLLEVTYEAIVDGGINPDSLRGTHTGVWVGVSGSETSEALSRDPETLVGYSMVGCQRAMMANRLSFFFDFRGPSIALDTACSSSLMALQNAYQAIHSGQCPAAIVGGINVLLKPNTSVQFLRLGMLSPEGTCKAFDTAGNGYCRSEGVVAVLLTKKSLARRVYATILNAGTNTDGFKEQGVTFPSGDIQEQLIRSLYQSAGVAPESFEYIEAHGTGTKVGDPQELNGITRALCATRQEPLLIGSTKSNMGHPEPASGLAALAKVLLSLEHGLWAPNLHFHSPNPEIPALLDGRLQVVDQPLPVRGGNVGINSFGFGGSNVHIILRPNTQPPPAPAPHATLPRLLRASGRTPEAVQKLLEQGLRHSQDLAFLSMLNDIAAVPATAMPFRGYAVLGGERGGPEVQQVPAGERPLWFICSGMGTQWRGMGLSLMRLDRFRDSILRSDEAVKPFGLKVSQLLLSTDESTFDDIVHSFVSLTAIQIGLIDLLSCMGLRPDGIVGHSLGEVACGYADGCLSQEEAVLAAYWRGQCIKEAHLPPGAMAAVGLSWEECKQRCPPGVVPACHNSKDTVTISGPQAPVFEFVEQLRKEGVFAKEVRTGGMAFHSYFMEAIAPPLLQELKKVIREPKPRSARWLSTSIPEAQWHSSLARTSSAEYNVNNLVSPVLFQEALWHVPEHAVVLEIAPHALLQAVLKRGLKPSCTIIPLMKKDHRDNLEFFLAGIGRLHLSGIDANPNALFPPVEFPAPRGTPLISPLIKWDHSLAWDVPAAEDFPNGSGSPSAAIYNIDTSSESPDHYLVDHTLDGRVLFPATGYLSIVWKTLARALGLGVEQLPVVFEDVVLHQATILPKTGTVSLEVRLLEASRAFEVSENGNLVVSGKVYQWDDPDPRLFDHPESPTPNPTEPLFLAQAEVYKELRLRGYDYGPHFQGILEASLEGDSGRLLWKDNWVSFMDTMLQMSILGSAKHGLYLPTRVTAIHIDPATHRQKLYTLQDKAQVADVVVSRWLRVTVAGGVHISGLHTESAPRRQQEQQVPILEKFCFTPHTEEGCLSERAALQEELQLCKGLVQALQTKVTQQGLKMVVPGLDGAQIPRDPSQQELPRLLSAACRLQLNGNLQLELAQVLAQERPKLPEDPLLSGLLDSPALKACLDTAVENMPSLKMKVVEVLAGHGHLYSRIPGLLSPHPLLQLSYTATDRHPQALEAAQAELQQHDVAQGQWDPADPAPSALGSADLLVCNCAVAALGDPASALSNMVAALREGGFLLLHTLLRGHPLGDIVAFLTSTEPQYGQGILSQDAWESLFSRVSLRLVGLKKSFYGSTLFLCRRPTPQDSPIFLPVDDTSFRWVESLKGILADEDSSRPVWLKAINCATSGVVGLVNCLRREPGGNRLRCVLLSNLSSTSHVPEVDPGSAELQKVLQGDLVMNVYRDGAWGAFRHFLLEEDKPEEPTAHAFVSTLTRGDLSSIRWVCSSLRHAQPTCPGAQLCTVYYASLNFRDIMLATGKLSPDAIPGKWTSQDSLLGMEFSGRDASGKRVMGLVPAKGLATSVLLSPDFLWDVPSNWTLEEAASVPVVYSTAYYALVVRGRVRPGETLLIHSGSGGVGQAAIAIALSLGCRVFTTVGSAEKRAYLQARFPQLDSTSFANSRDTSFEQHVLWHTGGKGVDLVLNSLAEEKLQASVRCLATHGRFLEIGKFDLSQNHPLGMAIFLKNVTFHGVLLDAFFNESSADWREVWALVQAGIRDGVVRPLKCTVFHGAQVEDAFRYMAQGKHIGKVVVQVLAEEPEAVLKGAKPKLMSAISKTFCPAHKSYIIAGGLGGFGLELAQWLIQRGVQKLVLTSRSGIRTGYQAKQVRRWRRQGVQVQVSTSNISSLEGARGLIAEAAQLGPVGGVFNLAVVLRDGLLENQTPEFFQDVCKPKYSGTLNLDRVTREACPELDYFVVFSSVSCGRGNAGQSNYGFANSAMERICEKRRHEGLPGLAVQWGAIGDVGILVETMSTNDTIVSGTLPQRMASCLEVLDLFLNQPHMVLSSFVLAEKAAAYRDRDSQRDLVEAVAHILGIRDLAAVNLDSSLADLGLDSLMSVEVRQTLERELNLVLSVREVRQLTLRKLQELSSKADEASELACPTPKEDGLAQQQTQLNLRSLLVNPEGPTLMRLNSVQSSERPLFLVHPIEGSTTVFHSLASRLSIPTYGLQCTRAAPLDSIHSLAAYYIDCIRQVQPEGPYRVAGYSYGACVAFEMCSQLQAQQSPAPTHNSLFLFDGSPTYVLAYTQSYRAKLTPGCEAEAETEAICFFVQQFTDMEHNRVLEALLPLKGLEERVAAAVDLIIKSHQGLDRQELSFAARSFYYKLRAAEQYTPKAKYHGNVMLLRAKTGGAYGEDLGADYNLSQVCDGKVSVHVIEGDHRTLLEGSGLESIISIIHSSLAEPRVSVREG
compound,measurement,setting,value
CCOC(=O)c1c(C)n(-c2ccc(C)cc2)c2c(CC(C)=O)c(Br)c(OC)c(O)c12,EC50,[1],> 260 µM (inactive)
COC(=O)CCC(=O)COc1ccc(OC)cc1C#N,EC50,[1],105 µM (active)
COc1ccc(C(c2nnnn2-c2c(C)cccc2C)N2CCC(n3c(O)nc4ccccc43)CC2)cc1 (configuration not stated),IC50,[2],16 µM (active)
same,IC50,[3],16.5 µM (active)
CCCCOc1ccccc1NC(=O)Cn1c(-c2nonc2N)nc2ccccc21,EC50,[4],0.163 µM (active)
same,EC50,[5],0.254 µM (active)
same,EC50,[6],3.38 µM (active)
same,EC50,[7],4.23 µM (active)
same,EC50,[8],8.28 µM (active)
same,EC50,[9],2.49 µM (active)
same,EC50,[10],7.06 µM (active)
same,EC50,[11],3.73 µM (inconclusive)
same,EC50,[12],7.21 µM (inconclusive)
COc1cccc(Sc2ccccc2/C=N/NC(N)=O)c1,EC50,[1],> 260 µM (inactive)
C=CC[n+]1c(-c2ccc(OC)cc2)csc1NNC(=O)Nc1ccccc1,EC50,[1],> 260 µM (inactive)
O=C(COC(=O)c1cc([N+](=O)[O-])ccc1N1CCOCC1)NC1CCCCC1,IC50,[2],0.266 µM (active)
same,IC50,[3],0.321 µM (active)
CCn1c(S)nnc1CC(C)C,EC50,[1],> 260 µM (inactive)
same,AC50,[13],22.4 µM (inconclusive)
Cc1cc(C(c2ccc(O)cc2)c2cc(C)c(O)cc2C)c(C)cc1O,EC50,[14],100 µM (active)
same,AC50,[15],4.7 µM (active)
same,CC50,[16],20 µM (active)
CC1CCCN(S(=O)(=O)c2ccc(NC(=O)Cc3ccc(S(=O)(=O)N4CCOCC4)s3)cc2)C1 (configuration not stated),IC50,[2],9.35 µM (active)
same,IC50,[3],7.85 µM (active)
CC1CCCCN1C(=O)COC(=O)c1cc([N+](=O)[O-])ccc1N1CCOCC1 (configuration not stated),IC50,[2],10.9 µM (active)
same,IC50,[3],9.09 µM (active)
O=C(Oc1ccc(Br)cc1)C1CC(=O)N(c2ccc(F)cc2)C1 (configuration not stated),EC50,[14],11.8 µM (active)
same,AC50,[15],7.12 µM (active)
N#CC1(NC(=O)COC(=O)c2cc([N+](=O)[O-])ccc2N2CCCC2)CCCCC1,IC50,[2],5.51 µM (active)
same,IC50,[3],7.64 µM (active)
CCCc1nn(C)c2c1C(c1cccnc1)C(C#N)=C(N)O2 (configuration not stated),EC50,[14],3.83 µM (active)
same,AC50,[15],6.1 µM (active)
Cc1ccc(C)c(C2NC(=O)c3ccccc3N2)c1 (configuration not stated),EC50,[6],9.8 µM (inconclusive)
same,EC50,[7],19.3 µM (inconclusive)
same,EC50,[10],93.9 µM (active)
same,EC50,[11],18.2 µM (active)
N#CC1=C(N)Oc2[nH]nc(-c3cccs3)c2C1c1ccsc1 (configuration not stated),EC50,[14],0.672 µM (active)
same,AC50,[15],2.2 µM (active)
CC(C)CCNC(=O)C1CC(c2cccc([N+](=O)[O-])c2)=NO1 (configuration not stated),IC50,[2],11 µM (active)
same,IC50,[3],8.3 µM (active)
CN(Cc1ccccc1)c1nc(N)c([N+](=O)[O-])c(NCc2ccccc2)n1,EC50,[1],> 260 µM (inactive)
CN1CCN(C(=O)/C=C/c2ccc([N+](=O)[O-])o2)CC1,EC50,[6],44.6 µM (active)
same,EC50,[7],> 150 µM (not active)
same,EC50,[10],> 150 µM (not active)
same,EC50,[11],> 150 µM (not active)
CCOC(=O)C1CCN(C(=O)c2cc3cc4ccc(C)cc4nc3o2)CC1,IC50,[2],12.2 µM (active)
same,IC50,[3],11.3 µM (active)
COc1ccc(Cl)cc1N(CC(=O)Nc1ccccc1SC)S(C)(=O)=O,EC50,[1],> 260 µM (inactive)
O=C(CN1C(=O)c2cccc([N+](=O)[O-])c2C1=O)N1CCc2ccccc2C1,IC50,[2],9.41 µM (active)
NC(=O)N/N=C/c1cn(-c2ccccc2)nc1-c1cccs1,EC50,[6],19.4 µM (active)
same,EC50,[7],36 µM (active)
same,EC50,[10],> 150 µM (not active)
same,EC50,[11],> 150 µM (not active)
CC(=O)Nc1ccc(N/C=C/C(=O)C(C)(C)C)cc1,EC50,[1],> 260 µM (inactive)
N#C/C(=C\c1cccc(NC(=O)c2ccccc2Cl)c1)C(=O)NCCc1ccccc1,EC50,[4],15.1 µM (active)
same,EC50,[5],14.4 µM (active)
same,EC50,[14],11.2 µM (active)
same,AC50,[15],8.73 µM (active)
same,CC50,[16],15.6 µM (active)
Cc1c(C(=O)NCc2ccoc2)oc2ccc3c(c12)C(=O)CC(C)(C)O3,EC50,[17],33.7 µM (active)
same,EC50,[18],> 120 µM (not active)
C/C(CC(=O)N1CCN(C=O)CC1)=N\NC(=O)c1cccc([N+](=O)[O-])c1,EC50,[14],1.99 µM (active)
same,AC50,[15],24.7 µM (active)
COc1ccc(N/C=C(\C=C\C#N)S(=O)(=O)c2ccccc2)cc1,EC50,[1],> 260 µM (inactive)
Cc1cccc(/C=N\NC(=O)c2csnn2)c1,EC50,[1],> 260 µM (inconclusive)
COc1ccccc1/C=C/C(=O)c1cc(Br)ccc1OC(=O)c1ccco1,EC50,[1],20.5 µM (active)
O=C(c1ccc(Cl)c(S(=O)(=O)NCc2ccco2)c1)N1CCN(c2ccccc2F)CC1,EC50,[1],> 260 µM (inactive)
